Laboratory results from ChEMBL document CHEMBL1153045, “Aminopiperidine-fused imidazoles as dipeptidyl peptidase-IV inhibitors” (Bioorg Med Chem Lett, 2009).

Assays:
Dipeptidyl peptidase 9 = Dipeptidyl peptidase 9 (Homo sapiens, UniProt Q86TI2); assay: Inhibition of human DPP9 expressed in baculovirus by continuous fluorescent assay
Dipeptidyl peptidase 2 = Dipeptidyl peptidase 2 (Homo sapiens, UniProt Q9UHL4); assay: Inhibition of human recombinant QPP transfected in insect SF9 cells
[1] = Inhibition of rabbit L-type calcium channel; design: species or system Oryctolagus cuniculus
Cytochrome P450 2D6 = Cytochrome P450 2D6 (Homo sapiens, UniProt P10635); assay: Inhibition of CYP2D6; assay type: ADME
Sequence of Cytochrome P450 2D6 (P10635 whole entry): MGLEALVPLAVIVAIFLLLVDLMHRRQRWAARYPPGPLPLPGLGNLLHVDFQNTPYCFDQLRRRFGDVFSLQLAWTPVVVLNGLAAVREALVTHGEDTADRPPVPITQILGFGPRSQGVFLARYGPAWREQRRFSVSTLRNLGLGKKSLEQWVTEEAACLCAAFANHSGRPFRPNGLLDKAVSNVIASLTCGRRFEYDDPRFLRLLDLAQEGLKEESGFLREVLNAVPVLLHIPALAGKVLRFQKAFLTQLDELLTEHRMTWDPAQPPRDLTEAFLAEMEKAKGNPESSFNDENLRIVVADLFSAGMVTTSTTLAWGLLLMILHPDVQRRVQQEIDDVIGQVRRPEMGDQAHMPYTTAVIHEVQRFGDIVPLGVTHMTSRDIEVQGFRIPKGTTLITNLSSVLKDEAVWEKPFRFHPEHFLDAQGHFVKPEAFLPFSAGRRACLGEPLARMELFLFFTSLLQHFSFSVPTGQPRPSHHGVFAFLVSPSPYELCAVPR

Dipeptidyl peptidase 8 = Dipeptidyl peptidase 8 (Homo sapiens, UniProt Q6V1X1); assay: Inhibition of human DPP8 expressed in baculovirus by continuous fluorescent assay
Sequence of Dipeptidyl peptidase 8 (Q6V1X1 whole entry): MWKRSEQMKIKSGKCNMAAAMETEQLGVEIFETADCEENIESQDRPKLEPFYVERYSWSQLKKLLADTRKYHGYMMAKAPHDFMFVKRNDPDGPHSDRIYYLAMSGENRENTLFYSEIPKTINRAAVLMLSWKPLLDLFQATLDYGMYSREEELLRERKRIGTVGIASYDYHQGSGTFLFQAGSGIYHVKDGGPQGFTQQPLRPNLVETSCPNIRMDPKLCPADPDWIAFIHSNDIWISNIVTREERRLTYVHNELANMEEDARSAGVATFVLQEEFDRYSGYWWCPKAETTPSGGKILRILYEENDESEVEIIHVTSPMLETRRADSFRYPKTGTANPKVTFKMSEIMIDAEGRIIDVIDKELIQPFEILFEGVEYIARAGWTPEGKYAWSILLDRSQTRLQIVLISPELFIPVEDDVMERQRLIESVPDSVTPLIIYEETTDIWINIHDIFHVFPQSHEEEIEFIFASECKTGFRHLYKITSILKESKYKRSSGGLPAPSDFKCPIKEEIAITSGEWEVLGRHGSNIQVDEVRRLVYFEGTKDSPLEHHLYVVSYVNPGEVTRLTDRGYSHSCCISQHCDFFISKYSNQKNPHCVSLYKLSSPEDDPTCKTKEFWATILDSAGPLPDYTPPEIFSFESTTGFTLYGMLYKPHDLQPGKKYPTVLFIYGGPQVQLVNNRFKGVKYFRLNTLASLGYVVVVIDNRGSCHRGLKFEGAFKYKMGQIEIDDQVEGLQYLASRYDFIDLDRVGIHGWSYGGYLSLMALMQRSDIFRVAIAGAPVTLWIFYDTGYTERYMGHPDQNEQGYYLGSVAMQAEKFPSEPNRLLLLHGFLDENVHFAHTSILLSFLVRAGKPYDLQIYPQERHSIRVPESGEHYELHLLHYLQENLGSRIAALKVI

[2] = Oral bioavailability in rat at 2 mg/kg, po; assay type: ADME, organism-based; conditions: in vivo
[3] = Plasma clearance in rat at 1 mg/kg, iv or 2 mg/kg, po; assay type: ADME, organism-based
[4] = Half life in rat at 1 mg/kg, iv or 2 mg/kg, po; assay type: ADME, organism-based; conditions: in vivo
[5] = Fraction unbound in mouse plasma; assay type: ADME, cell-free
Dipeptidyl peptidase 4 = Dipeptidyl peptidase 4 (Mus musculus, UniProt P28843); assay: Inhibition of C57BL/6N mouse DPP4
Sequence of Dipeptidyl peptidase 4 (P28843 whole entry): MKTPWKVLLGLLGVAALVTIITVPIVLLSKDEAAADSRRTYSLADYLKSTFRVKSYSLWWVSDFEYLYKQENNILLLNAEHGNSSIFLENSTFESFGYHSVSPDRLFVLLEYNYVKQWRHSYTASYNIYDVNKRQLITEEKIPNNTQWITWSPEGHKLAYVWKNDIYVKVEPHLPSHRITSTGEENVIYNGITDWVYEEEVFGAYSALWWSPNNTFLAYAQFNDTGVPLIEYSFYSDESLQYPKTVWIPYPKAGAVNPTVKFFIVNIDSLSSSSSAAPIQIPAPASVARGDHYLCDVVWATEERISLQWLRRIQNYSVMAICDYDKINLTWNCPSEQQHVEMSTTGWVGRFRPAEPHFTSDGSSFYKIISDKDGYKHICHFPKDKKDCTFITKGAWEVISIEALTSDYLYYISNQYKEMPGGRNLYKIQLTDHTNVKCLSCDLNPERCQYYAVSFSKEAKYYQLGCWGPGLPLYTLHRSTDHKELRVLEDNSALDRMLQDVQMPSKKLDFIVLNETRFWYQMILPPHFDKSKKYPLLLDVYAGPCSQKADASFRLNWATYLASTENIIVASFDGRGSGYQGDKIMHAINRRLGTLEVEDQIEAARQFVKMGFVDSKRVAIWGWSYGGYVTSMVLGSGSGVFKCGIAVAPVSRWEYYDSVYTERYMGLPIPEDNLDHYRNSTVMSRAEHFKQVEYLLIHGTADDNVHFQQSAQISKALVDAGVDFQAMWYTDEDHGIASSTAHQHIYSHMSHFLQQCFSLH

Mus musculus [6] = assay: Reduction in glucose excursion in C57BL/6N lean mouse at 0.1 mg/kg, po administered as single dose 60 mins before dextrose challenge by oral glucose tolerance test; assay type: functional; design: scale not given: the % may be the effect or the level left
Mus musculus [7] = assay: Inhibition of DPP4 in C57BL/6N lean mouse at 1 mg/kg, po administered as single dose 60 mins before dextrose challenge by oral glucose tolerance test; assay type: functional
[8] = Oral bioavailability in dog at 2 mg/kg, po; assay type: ADME, organism-based, Canis lupus familiaris; conditions: in vivo
[9] = Half life in mouse at 1 mg/kg, iv or 2 mg/kg, po; assay type: ADME, organism-based; conditions: in vivo
[10] = Half life in dog at 1 mg/kg, iv or 2 mg/kg, po; assay type: ADME, organism-based, Canis lupus familiaris; conditions: in vivo
[11] = Oral bioavailability in mouse at 2 mg/kg, po; assay type: ADME, organism-based; conditions: in vivo
[12] = Half life in rhesus monkey at 1 mg/kg, iv or 2 mg/kg, po; assay type: ADME, organism-based, Macaca mulatta; conditions: in vivo
Mus musculus [13] = assay: Reduction in glucose excursion in C57BL/6N lean mouse at 3 mg/kg, po administered as single dose 60 mins before dextrose challenge by oral glucose tolerance test; assay type: functional; design: scale not given: the % may be the effect or the level left
[14] = Plasma clearance in rhesus monkey at 1 mg/kg, iv or 2 mg/kg, po; assay type: ADME, organism-based, Macaca mulatta
[15] = Plasma clearance in dog at 1 mg/kg, iv or 2 mg/kg, po; assay type: ADME, organism-based, Canis lupus familiaris
[16] = Plasma concentration in C57BL/6N lean mouse at 1 mg/kg, po administered as single dose 60 mins before dextrose challenge by oral glucose tolerance test; assay type: ADME, organism-based; design: dose 1 mg/kg, route oral
[17] = Oral bioavailability in rhesus monkey at 2 mg/kg, po; assay type: ADME, organism-based, Macaca mulatta; conditions: in vivo
[18] = Plasma clearance in mouse at 1 mg/kg, iv or 2 mg/kg, po; assay type: ADME, organism-based
[19] = Metabolic stability in dog hepatocytes assessed as compound remaining after 60 mins; assay type: ADME, cell-based, Canis lupus familiaris, Hepatocyte; conditions: read-out: Stability
[20] = Metabolic stability in rat liver microsomes assessed as compound remaining after 60 mins; assay type: ADME, Microsome; conditions: read-out: Stability
[21] = Metabolic stability in rat hepatocytes assessed as compound remaining after 60 mins; assay type: ADME, cell-based, Hepatocyte; conditions: read-out: Stability
[22] = Metabolic stability in human hepatocytes assessed as compound remaining after 60 mins; assay type: ADME, cell-based, Hepatocyte; conditions: read-out: Stability
[23] = Metabolic stability in human liver microsomes assessed as compound remaining after 60 mins; assay type: ADME, Microsome; conditions: read-out: Stability
[24] = Metabolic stability in rhesus monkey hepatocytes assessed as compound remaining after 60 mins; assay type: ADME, cell-based, Macaca mulatta, Hepatocyte; conditions: read-out: Stability
[25] = Metabolic stability in dog liver microsomes assessed as compound remaining after 60 mins; assay type: ADME, Canis lupus familiaris, Microsome; conditions: read-out: Stability
[26] = Metabolic stability in rhesus monkey liver microsomes assessed as compound remaining after 60 mins; assay type: ADME, Macaca mulatta, Microsome; conditions: read-out: Stability
[27] = target: Voltage-gated inwardly rectifying potassium channel KCNH2 (Homo sapiens, UniProt Q12809); assay: Inhibition of human ERG
Sequence of Voltage-gated inwardly rectifying potassium channel KCNH2 (Q12809 whole entry): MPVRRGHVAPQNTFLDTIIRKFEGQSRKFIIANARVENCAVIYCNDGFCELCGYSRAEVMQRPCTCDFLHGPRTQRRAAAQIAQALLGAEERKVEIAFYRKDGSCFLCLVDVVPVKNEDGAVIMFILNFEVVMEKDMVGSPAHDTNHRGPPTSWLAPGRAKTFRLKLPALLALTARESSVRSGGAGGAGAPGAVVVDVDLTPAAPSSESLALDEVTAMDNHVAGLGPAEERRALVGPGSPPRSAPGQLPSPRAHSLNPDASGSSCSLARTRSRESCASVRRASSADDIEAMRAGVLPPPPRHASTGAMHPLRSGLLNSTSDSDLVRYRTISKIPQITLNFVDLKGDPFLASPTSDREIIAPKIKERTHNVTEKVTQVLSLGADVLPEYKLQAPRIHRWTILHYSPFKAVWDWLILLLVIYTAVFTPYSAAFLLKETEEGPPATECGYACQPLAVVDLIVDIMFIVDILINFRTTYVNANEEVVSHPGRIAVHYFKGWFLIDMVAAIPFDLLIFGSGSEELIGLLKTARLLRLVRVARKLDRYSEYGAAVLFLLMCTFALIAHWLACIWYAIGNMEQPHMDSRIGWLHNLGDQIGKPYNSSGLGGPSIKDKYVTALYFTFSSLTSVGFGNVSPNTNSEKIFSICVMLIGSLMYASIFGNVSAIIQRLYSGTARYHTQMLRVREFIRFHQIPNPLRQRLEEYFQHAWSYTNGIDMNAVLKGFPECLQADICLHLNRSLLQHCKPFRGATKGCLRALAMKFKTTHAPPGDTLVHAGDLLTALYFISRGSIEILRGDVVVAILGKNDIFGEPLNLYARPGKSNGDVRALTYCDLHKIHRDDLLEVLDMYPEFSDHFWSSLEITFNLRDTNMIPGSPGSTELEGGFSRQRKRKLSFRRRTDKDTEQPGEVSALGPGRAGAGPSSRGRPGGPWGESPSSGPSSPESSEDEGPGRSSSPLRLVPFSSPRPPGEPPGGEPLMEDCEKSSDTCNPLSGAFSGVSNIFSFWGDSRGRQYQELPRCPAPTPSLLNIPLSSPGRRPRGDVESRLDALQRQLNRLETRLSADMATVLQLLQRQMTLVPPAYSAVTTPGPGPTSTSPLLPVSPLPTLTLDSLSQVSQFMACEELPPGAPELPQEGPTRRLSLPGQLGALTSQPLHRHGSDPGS

Sequence of Dipeptidyl peptidase 9 (Q86TI2 whole entry): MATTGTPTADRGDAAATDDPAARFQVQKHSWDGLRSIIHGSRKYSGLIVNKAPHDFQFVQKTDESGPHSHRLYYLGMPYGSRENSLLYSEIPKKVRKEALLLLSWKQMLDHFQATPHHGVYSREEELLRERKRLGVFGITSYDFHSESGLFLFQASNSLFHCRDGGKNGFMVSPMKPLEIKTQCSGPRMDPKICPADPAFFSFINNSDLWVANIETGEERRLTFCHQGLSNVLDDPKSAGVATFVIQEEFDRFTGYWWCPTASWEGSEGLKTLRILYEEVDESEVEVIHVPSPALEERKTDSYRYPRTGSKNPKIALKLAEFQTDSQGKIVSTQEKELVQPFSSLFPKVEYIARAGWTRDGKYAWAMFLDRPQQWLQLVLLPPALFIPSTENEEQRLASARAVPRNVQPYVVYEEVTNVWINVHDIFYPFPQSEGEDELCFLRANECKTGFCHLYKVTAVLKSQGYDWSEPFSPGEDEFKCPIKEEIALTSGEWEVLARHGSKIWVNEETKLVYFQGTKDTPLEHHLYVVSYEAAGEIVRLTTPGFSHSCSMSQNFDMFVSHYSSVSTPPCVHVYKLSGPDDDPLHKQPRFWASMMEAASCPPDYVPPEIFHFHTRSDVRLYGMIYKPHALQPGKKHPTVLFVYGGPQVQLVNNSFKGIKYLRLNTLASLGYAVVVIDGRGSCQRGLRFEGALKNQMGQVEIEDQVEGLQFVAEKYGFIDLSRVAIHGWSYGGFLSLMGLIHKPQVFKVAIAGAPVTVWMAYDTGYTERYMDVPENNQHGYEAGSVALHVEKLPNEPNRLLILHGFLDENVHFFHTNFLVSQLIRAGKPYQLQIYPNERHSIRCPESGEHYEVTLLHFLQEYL

Structure (SMILES)	IC50 (Dipeptidyl peptidase 9)	IC50 (Dipeptidyl peptidase 8)	bioavailability [2]	clearance [3]	half-life [4]	other results
CC(=O)Nc1ccc2c(c1)nc1n2C[C@H](N)[C@@H](c2cc(F)c(F)cc2F)C1	> 100 µM					
N[C@H]1Cn2c(nc3ccncc32)C[C@@H]1c1cc(F)c(F)cc1F						IC50 (Dipeptidyl peptidase 2): > 100 µM
CS(=O)(=O)c1ccc2c(c1)nc1n2C[C@H](N)[C@@H](c2cc(F)c(F)cc2F)C1.O=C(O)C(F)(F)F	> 100 µM	> 100 µM	63%	2.2 mL/min/kg	3.4 h	IC50 [1]: > 100 µM; IC50 (Cytochrome P450 2D6): 1.5 µM
CS(=O)(=O)c1ccc2nc3n(c2c1)C[C@H](N)[C@@H](c1cc(F)c(F)cc1F)C3	> 100 µM	> 100 µM				IC50 (Dipeptidyl peptidase 2): > 100 µM
N[C@H]1Cn2c(nc3cccnc32)C[C@@H]1c1cc(F)c(F)cc1F	> 100 µM	> 100 µM				
Cl.N[C@H]1Cn2c(nc3cnccc32)C[C@@H]1c1cc(F)c(F)cc1F	> 100 µM	> 100 µM				fraction unbound [5]: 0.55; IC50 (Dipeptidyl peptidase 4): 0.045 µM; Activity (Mus musculus [6]): 27%; IC50 [1]: > 100 µM; inhibition in vivo at 1 mg/kg (Mus musculus [7]): 88%; IC50 (Cytochrome P450 2D6): 13 µM; bioavailability [8]: 120%; half-life [9]: 1.9 h; half-life [10]: 13 h; bioavailability [11]: 73%; IC50 (Dipeptidyl peptidase 2): > 100 µM; half-life [12]: 1 h; Activity (Mus musculus [13]): 49%; clearance [14]: 35 mL/min/kg; clearance [15]: 2.7 mL/min/kg; concentration at 1 h [16]: 691 nM; bioavailability [17]: 11%; clearance [18]: 36 mL/min/kg
N[C@H]1Cn2c(nc3ccc(C(F)(F)F)cc32)C[C@@H]1c1cc(F)c(F)cc1F		> 100 µM				
N[C@H]1Cn2c(nc3cc(C(=O)O)ccc32)C[C@@H]1c1cc(F)c(F)cc1F.O=C(O)C(F)(F)F	> 100 µM	> 100 µM	24%	61 mL/min/kg	0.4 h	IC50 (Dipeptidyl peptidase 2): > 100 µM
N[C@H]1Cn2c(nc3cc(F)ccc32)C[C@@H]1c1cc(F)c(F)cc1F		> 100 µM				
N[C@H]1Cn2c(nc3c(F)c(F)c(F)cc32)C[C@@H]1c1cc(F)c(F)cc1F		> 100 µM				
CN(C)C(=O)c1ccc2c(c1)nc1n2C[C@H](N)[C@@H](c2cc(F)c(F)cc2F)C1	> 100 µM	> 100 µM				
N[C@H]1Cn2c(nc3cnccc32)C[C@@H]1c1cc(F)c(F)cc1F.O=C(O)C(F)(F)F.O=C(O)C(F)(F)F	> 100 µM	> 100 µM	140%	8.7 mL/min/kg	2.6 h	remaining at 1 h [19]: 99%; remaining at 1 h [20]: 83%; remaining at 1 h [21]: 94%; remaining at 1 h [22]: 99%; remaining at 1 h [23]: 97%; remaining at 1 h [24]: 35%; IC50 (Cytochrome P450 2D6): 13 µM; IC50 (Dipeptidyl peptidase 2; sf9): > 100 µM; remaining at 1 h [25]: 92%; remaining at 1 h [26]: 69%
N[C@H]1Cn2c(nc3ncccc32)C[C@@H]1c1cc(F)c(F)cc1F.O=C(O)C(F)(F)F.O=C(O)C(F)(F)F	> 100 µM	> 100 µM	96%	3.9 mL/min/kg	3.8 h	IC50 [27]: 90 µM; IC50 [1]: > 100 µM; IC50 (Cytochrome P450 2D6): 5.2 µM
N[C@H]1Cn2c(nc3cnc(F)cc32)C[C@@H]1c1cc(F)c(F)cc1F.O=C(O)C(F)(F)F.O=C(O)C(F)(F)F		> 100 µM	87%	0.5 mL/min/kg	17 h	IC50 [27]: 81 µM; IC50 [1]: 1.5 µM; IC50 (Cytochrome P450 2D6): 12 µM
N[C@H]1Cn2c(nc3cnc(C(F)(F)F)cc32)C[C@@H]1c1cc(F)c(F)cc1F.O=C(O)C(F)(F)F.O=C(O)C(F)(F)F			110%	1.4 mL/min/kg	8.7 h	IC50 [1]: 96 µM; IC50 (Cytochrome P450 2D6): 11 µM
N[C@H]1Cn2c(nc3cc(C(F)(F)F)ccc32)C[C@@H]1c1cc(F)c(F)cc1F.O=C(O)C(F)(F)F	> 100 µM	> 100 µM	55%	4.8 mL/min/kg	7.6 h	
Cc1ccc2c(c1)nc1n2C[C@H](N)[C@@H](c2cc(F)c(F)cc2F)C1	> 100 µM	> 100 µM				
COc1ccc2c(c1)nc1n2C[C@H](N)[C@@H](c2cc(F)c(F)cc2F)C1		> 100 µM				
N[C@H]1Cn2c(nc3c(F)cc(F)cc32)C[C@@H]1c1cc(F)c(F)cc1F		> 100 µM				
CS(=O)(=O)Nc1ccc2c(c1)nc1n2C[C@H](N)[C@@H](c2cc(F)c(F)cc2F)C1		> 100 µM				IC50 [27]: 2.5 µM
CCS(=O)(=O)c1ccc2c(c1)nc1n2C[C@H](N)[C@@H](c2cc(F)c(F)cc2F)C1	> 100 µM	> 100 µM				IC50 (Dipeptidyl peptidase 2): > 100 µM
N[C@H]1Cn2c(nc3ccccc32)C[C@@H]1c1cc(F)c(F)cc1F	> 100 µM	> 100 µM				
N[C@H]1Cn2c(nc3ccc(F)cc32)C[C@@H]1c1cc(F)c(F)cc1F.O=C(O)C(F)(F)F		> 100 µM	37%	25 mL/min/kg	1.4 h	
N[C@H]1Cn2c(nc3ccc(OC(F)(F)F)cc32)C[C@@H]1c1cc(F)c(F)cc1F	> 100 µM					
N[C@H]1Cn2c(nc3c(F)cccc32)C[C@@H]1c1cc(F)c(F)cc1F	> 100 µM	> 100 µM				
